Source: patent US7442807B2, “N-phenylpyrrole guanidine derivatives as melanocortin receptor ligands” (Action Pharma A/S, priority 2001, dated 2008)
pKi: −log10 of the molar value.

Key:
[1] = target: T1, MC5 (Homo sapiens, UniProt P33032); experiment: Test 2. Affinity for the MC5-receptors (I125-NDP-αMSH binding); details: I125-NDP-αMSH as ligand; read-out: Affinity for MC-receptors Ki MC5
Protocol: (§1) Test 2. Affinity for the MC3-receptors, the MC4-receptors and the MC5-receptors
(§2) The binding assays were carried out essentially as described by Szardenings et al, J Biol Chem 1997; 272; 27943-27948 and Schiöth et al, FEBS Lett 1997; 410; 223-228 using I125-NDP-αMSH as ligand.

[2] = target: T2, MC4 (Homo sapiens, UniProt P32245); experiment: Test 2. Affinity for the MC4-receptors (I125-NDP-αMSH binding); details: I125-NDP-αMSH as ligand; read-out: Affinity for MC-receptors Ki MC4
Protocol: as §1, §2

[3] = target: T3, MC3 (Homo sapiens, UniProt P41968); experiment: Test 2. Affinity for the MC3-receptors (I125-NDP-αMSH binding); details: I125-NDP-αMSH as ligand; read-out: Affinity for MC-receptors Ki MC3
Protocol: as §1, §2

[4] = target: T2, MC4; experiment: Test 3. cAMP stimulation, MC4; type: cell-based; details: response relative to α-MSH
Protocol: (§3) The stimulation of cAMP was carried out essentially as described by Schiöth et al, Br J Pharmacol 1998; 124; 75-82, however, the response is given relative to α-MSH.

[5] = target: T3, MC3; experiment: Test 3. cAMP stimulation, MC3; type: cell-based; details: response relative to α-MSH
Protocol: as §3

[6] = target: T1, MC5; experiment: Test 3. cAMP stimulation, MC5; type: cell-based; details: response relative to α-MSH
Protocol: as §3

[7] = target: MC1-receptor (Mus musculus, UniProt Q01727); experiment: Test 1. Affinity for the MC1-receptor (I125-NDP-αMSH binding); details: I125-NDP-αMSH as ligand; read-out: Affinity for MC-receptors Ki MC1
Text: Test 1. Affinity for the MC1-receptor
The binding assay was cared out essentially as described by Lunec et al, Melanoma Res 1992; 2; 5-12 using I^125-NDP-αMSH as ligand.

[8] = target: MC1 (Homo sapiens, UniProt Q01726); experiment: Test 3. cAMP stimulation, MC1; type: cell-based; details: response relative to α-MSH
Protocol: as §3

T3 sequence (P41968 whole entry): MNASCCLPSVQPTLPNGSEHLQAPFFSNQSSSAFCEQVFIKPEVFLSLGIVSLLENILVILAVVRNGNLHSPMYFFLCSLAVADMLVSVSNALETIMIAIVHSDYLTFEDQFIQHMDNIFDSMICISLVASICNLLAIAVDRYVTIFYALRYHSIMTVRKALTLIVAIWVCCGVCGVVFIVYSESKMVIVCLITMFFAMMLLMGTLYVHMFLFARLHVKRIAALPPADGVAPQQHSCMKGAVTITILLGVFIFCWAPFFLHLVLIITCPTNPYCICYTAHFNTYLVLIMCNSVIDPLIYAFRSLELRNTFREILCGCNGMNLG
T1 sequence (P33032 whole entry): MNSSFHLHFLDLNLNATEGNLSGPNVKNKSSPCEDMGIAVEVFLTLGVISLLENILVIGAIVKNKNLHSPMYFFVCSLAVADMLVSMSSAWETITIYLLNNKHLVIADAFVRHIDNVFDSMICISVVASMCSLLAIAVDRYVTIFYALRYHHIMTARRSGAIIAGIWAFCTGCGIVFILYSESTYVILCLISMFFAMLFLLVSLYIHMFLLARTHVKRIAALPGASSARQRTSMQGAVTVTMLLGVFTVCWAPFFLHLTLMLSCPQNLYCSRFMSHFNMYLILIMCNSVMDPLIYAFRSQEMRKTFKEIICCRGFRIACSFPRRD
T2 sequence (P32245 whole entry): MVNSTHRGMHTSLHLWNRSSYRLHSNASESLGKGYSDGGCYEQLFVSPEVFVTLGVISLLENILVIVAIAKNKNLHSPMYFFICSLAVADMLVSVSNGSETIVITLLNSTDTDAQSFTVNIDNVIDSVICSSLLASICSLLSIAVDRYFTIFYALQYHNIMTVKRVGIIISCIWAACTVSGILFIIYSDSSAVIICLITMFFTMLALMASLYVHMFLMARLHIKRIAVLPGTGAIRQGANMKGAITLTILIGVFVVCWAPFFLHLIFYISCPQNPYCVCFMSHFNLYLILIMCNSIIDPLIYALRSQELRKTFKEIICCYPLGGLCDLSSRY
Sequence of MC1-receptor (Q01727 whole entry): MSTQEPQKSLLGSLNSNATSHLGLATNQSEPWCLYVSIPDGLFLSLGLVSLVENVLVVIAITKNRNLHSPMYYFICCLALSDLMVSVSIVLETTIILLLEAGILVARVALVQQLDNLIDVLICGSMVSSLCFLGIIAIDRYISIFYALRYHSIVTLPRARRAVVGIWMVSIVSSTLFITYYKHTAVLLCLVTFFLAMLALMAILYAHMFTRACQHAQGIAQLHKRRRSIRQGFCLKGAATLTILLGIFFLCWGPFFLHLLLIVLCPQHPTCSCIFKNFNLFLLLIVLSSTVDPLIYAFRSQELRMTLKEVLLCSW
Sequence of MC1 (Q01726 whole entry): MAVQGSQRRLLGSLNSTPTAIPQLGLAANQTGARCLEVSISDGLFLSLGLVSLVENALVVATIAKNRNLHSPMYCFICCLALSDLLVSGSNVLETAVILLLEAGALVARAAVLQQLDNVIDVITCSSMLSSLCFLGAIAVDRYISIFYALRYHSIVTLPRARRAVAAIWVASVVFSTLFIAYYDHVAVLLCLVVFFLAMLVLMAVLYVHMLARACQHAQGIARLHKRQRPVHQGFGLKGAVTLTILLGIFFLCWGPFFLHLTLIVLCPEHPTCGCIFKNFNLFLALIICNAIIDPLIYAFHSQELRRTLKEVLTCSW

Molecule | pKi [1] | pKi [2] | pKi [3] | Influence on cAMP: cAMP agonist/plateau stim. α-MSH (%) MC4 [4] | Influence on cAMP: cAMP agonist/plateau stim. α-MSH (%) MC3 [5] | Influence on cAMP: cAMP agonist/plateau stim. α-MSH (%) MC5 [6] | pKi [7] | Influence on cAMP: cAMP agonist/plateau stim. α-MSH (%) MC1 [8]
N=C(N)NN=Cc1cccn1-c1ccc(C(F)(F)F)cc1 [Compound 48, N-[(1-(4-Trifluoromethylphenyl)-1H-pyrrol-2-yl)methyleneamino]guanidine] | 5.11 | 7.15 | – | – | – | – | – | –
N=C(N)NN=Cc1cccn1-c1cc(Cl)cc(Cl)c1 [Compound 50, N-[(1-(3,5-dichlorophenyl)-1H-pyrrol-2-yl)methyleneamino]guanidine] | 5.12 | 5.44 | 4.89 | 36% | – | – | – | –
N-{1-[(4-Chlorophenyl)-1H-Pyrrol-2-yl]methylene-amino}guanidine [Compound 1] | 4.76 | 5.29 | 4.81 | 118% | 35% | 6% | 6.38 | 30%
